{
  "source": "patent US20250333371A1",
  "about": "“COMPOUNDS” (PSYLO PTY LTD, priority 2022, published 2025)",
  "key": {"[1]": {"target": "T1, 5-HT2A (Homo sapiens, UniProt P28223)", "T1 construct": "host or cells: HEK293", "T1 sequence (P28223 whole entry)": "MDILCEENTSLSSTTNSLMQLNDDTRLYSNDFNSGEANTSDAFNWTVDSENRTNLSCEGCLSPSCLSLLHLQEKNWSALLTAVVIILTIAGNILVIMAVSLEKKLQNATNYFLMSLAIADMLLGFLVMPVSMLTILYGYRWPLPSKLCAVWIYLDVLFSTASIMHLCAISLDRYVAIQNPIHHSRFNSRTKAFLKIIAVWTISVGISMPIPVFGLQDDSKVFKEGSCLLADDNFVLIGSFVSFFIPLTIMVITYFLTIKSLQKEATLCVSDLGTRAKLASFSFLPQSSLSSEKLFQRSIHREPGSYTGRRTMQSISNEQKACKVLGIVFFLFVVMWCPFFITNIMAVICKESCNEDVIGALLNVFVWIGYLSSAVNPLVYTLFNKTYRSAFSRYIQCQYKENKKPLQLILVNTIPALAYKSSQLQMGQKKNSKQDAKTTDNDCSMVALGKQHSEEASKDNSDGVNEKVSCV", "experiment": "FLIPR Ca2+ flux functional assay, 5-HT2A receptor (stably transfected HEK293)", "type": "cell-based", "details": "agonist activity, Ca2+ flux, HEK293"}, "[2]": {"target": "T2, 5-HT2C (Homo sapiens, UniProt P28335)", "T2 construct": "host or cells: HEK293", "T2 sequence (P28335 33-458)": "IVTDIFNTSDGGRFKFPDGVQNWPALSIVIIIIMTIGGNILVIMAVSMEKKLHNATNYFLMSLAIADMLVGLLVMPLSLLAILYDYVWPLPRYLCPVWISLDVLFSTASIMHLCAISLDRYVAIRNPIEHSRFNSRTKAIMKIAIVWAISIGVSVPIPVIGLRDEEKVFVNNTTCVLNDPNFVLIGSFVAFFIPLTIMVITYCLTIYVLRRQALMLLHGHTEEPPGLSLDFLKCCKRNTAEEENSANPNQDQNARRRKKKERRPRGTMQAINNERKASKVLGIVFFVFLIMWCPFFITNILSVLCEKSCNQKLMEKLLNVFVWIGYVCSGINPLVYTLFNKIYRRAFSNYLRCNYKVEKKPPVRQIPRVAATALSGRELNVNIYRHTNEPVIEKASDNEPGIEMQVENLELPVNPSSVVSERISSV", "experiment": "FLIPR Ca2+ flux functional assay, 5-HT2C receptor (stably transfected HEK293)", "type": "cell-based", "details": "agonist activity, Ca2+ flux, HEK293", "summary_of_the_method": "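Stably transfected HEK293 (5-HT2A, 5-HT2C) or CHO-K1 (5-HT2B) cells loaded with Fluo-4 Direct and 2.5 mM final probenecid for 50 min at 37 °C. Compounds given as 10-point 3-fold dilutions; calcium fluorescence read on FLIPR Tetra after addition.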"}, "[3]": {"experiment": "In vivo pharmacokinetics: plasma and brain exposure after IP administration", "design": "species or system male C57BL/6 mice", "details": "for B:P Ratio Individual / Plasma Concentration (μM) Individual / concentration at 0.5 h / concentration at 0.083 h / concentration at 4 h / Kp at 0.083 h / Kp at 0.5 h / Kp at 4 h / Kp: 10 mg/kg; for Kp at 0.083 h / Kp at 0.5 h / Kp at 4 h / Kp: brain/plasma", "description": "The study was conducted using established procedures in accordance with the Australian Code of Practice for the Care and Use of Animals for Scientific Purposes, and the study protocols were reviewed and approved by the Monash Institute of Pharmaceutical Sciences Animal Ethics Committee.\nThe systemic exposure of selected examples was studied in non-fasted male C57BL/6 mice weighing between 22.3-26.2 g. Mice had access to food and water ad libitum throughout the pre- and post-dose sampling period.\nOn the day of dosing, the formulation of each compound was prepared by dissolving solid compound in phosphate buffer saline (50 mM) using vortexing, creating colourless solutions (pH 6.1-6.3) for each compound.\nCompounds were dosed to mice by IP injection (10 mL/kg dose volume via a 27G needle; n=9 mice per compound) and blood samples were collected at 5 and 30 min; 1, 2 and 4 h post-dose (n=3 mice per time point for each compound). A maximum of three blood samples were obtained from each mouse, with plasma samples being taken via submandibular bleed (approximately 120 μL). Once collected, blood samples were centrifuged immediately, supernatant plasma was removed, and stored at −80° C. until analysis by LCMS. In addition, at the 5 and 30 min and 4 h post-dose time points, the whole brain was rapidly removed from the carcass soon after the blood collection. The whole brains were blotted to remove excess blood, placed into pre-weighed polypropylene vials, and weighed. The brains were snap frozen in dry ice and subsequently stored frozen (−80° C.) until analysis.\nConcentrations of test compound in plasma and tissue samples were determined using an LCMS/MS method validated for linearity, accuracy, precision, matrix factor and recovery (Table 2).\nTest compound standard solutions were diluted from a concentrated stock solution (1 mg/mL in DMSO) using 50% acetonitrile in water (v/v) and a calibration curve was prepared in a matched matrix to the test samples.\nPlasma: The plasma calibration curve was prepared by spiking aliquots of blank mouse plasma (25 μL) with test compound standard solutions (5 μL) and internal standard solution (5 μL of diazepam, 5 μg/mL in 50% acetonitrile in water). Test plasma samples (25 μL) were thawed, mixed, and then spiked with internal standard solution (5 μL). Plasma protein precipitation was performed by addition of acetonitrile (3-fold volume ratio) and thorough vortex mixing. Samples were centrifuged (RCF=9391×g) for 3 minutes and the supernatant (90 μL) was collected for analysis.\nTissue: Pre-weighed tissue samples (brain) were homogenised using a glass rod in buffer containing an EDTA/potassium fluoride solution (0.1 M/4 mg/mL) as a stabilisation cocktail to minimise the potential for ex vivo degradation (3 mL cocktail/g tissue). The tissue homogenate was briefly centrifuged (RCF=79×g) for 10 seconds to separate the foam layer before transferring an aliquot of the tissue homogenate (200 μL) to a fresh Eppendorf tube for sample extraction. Calibration standards were prepared by spiking blank brain homogenate (200 μL) with the solution standards (10 μL) and the internal standard (10 μL). Study samples were similarly prepared, except that acetonitrile (10 μL) was added instead of solution standards to maintain the same volume. Protein precipitation was carried out by the addition of a 3-fold volume of acetonitrile, followed by vortex mixing and centrifugation (RCF=9391×g) for 3 min to recover the supernatant for analysis.\nReplicate analysis: Triplicate analytical replicate (ARs) samples were prepared similarly to the standards for each sample type at three concentrations (50, 500 and 2,000 ng/mL) and repeat injections of these ARs were included throughout the analytical run to assess assay performance. The extraction of the test compound from the standards and ARs were conducted as described above. […]"}, "[4]": {"details": "IP 10 mg/kg, 0.083 h, individual mice"}, "[5]": {"details": "IP 10 mg/kg, 0.5 h, individual mice"}, "[6]": {"details": "IP 10 mg/kg, 4 h, individual mice"}, "[7]": {"details": "male, C57BL/6, mouse, plasma, IP 10 mg/kg"}},
  "note": "“And” between values parts separate entries of the source, which are not always exact repeats. Identical values can stand only once. Like-named read-outs stand apart in the source and are kept apart here.",
  "data": [
    {"smiles": "COc1ccc2cccc(CCN(C)C3CC3)c2c1", "note": "[Example I-15, N-(2-(7-methoxynaphthalen-1-yl)ethyl)-N-methylcyclopropanamine]", "values": [
      {"measurement": "Emax", "setting": "[1]", "result": 70, "unit": "%"},
      {"measurement": "EC50", "setting": "[1]; read-out: 5-HT2A EC50", "result": 133, "unit": "nM"},
      {"measurement": "Emax", "setting": "[2]", "result": 65, "unit": "%"},
      {"measurement": "EC50", "setting": "[2]; read-out: 5-HT2C EC50", "result": 292, "unit": "nM"},
      {"measurement": "Brain AUC0-4 h", "setting": "[3]; IP 10 mg/kg", "result": 13.8, "unit": "µM·h"},
      {"measurement": "B:P Ratio Individual", "setting": "[3]; [4]", "result": "6.9 and 6.7"},
      {"measurement": "Plasma Concentration (μM) Individual", "setting": "[3]; [4]", "result": "1.38 µM and 1.48 µM"},
      {"measurement": "concentration at 0.5 h", "setting": "[3]; IP 10 mg/kg, 0.083 h, individual mice, read-out: Brain Parenchyma Concentration (μM) Individual", "result": "9.59 µM and 9.89 µM"},
      {"measurement": "B:P Ratio Individual", "setting": "[3]; [5]", "result": "8.2 and 8.1"},
      {"measurement": "Plasma Concentration (μM) Individual", "setting": "[3]; [5]", "result": "0.932 µM and 0.820 µM"},
      {"measurement": "concentration at 0.5 h", "setting": "[3]; IP 10 mg/kg, 0.5 h, individual mice, read-out: Brain Parenchyma Concentration (μM) Individual", "result": "7.6 µM and 6.64 µM"},
      {"measurement": "B:P Ratio Individual", "setting": "[3]; [6]", "result": "9.3 and 7.5"},
      {"measurement": "Plasma Concentration (μM) Individual", "setting": "[3]; [6]", "result": "0.0701 µM and 0.151 µM and 0.101 µM"},
      {"measurement": "concentration at 0.5 h", "setting": "[3]; IP 10 mg/kg, 4 h, individual mice, read-out: Brain Parenchyma Concentration (μM) Individual", "result": "0.553 µM and 1.41 µM and 0.755 µM"},
      {"measurement": "concentration at 0.083 h", "setting": "[3]; male, C57BL/6, mouse, brain, ip, 0.083 h, individual mice, read-out: Brain Parenchyma Concentration (μM) Individual", "result": 16.9, "unit": "µM"},
      {"measurement": "concentration at 0.083 h", "setting": "[3]; male, C57BL/6, mouse, brain, ip, 0.083 h, n = 3, read-out: Brain Parenchyma Concentration (μM) Mean ± SD", "result": "12.1 ± 4.14", "unit": "µM"},
      {"measurement": "concentration at 0.5 h", "setting": "[3]; male, C57BL/6, mouse, brain, ip, 0.5 h, individual mice, read-out: Brain Parenchyma Concentration (μM) Individual", "result": 4.3, "unit": "µM"},
      {"measurement": "concentration at 0.5 h", "setting": "[3]; male, C57BL/6, mouse, brain, ip, 0.5 h, n = 3, read-out: Brain Parenchyma Concentration (μM) Mean ± SD", "result": "6.18 ± 1.7", "unit": "µM"},
      {"measurement": "concentration at 4 h", "setting": "[3]; male, C57BL/6, mouse, brain, ip, 4 h, n = 3, read-out: Brain Parenchyma Concentration (μM) Mean ± SD", "result": "0.905 ± 0.446", "unit": "µM"},
      {"measurement": "Kp at 0.083 h", "setting": "[3]; male, C57BL/6, mouse, ip, 0.083 h, individual mice, read-out: B:P Ratio Individual", "result": 7.3},
      {"measurement": "Kp at 0.083 h", "setting": "[3]; male, C57BL/6, mouse, ip, 0.083 h, n = 3, read-out: B:P Ratio Mean ± SD", "result": "7 ± 0.33"},
      {"measurement": "Kp at 0.5 h", "setting": "[3]; male, C57BL/6, mouse, ip, 0.5 h, individual mice, read-out: B:P Ratio Individual", "result": 6},
      {"measurement": "Kp at 0.5 h", "setting": "[3]; male, C57BL/6, mouse, ip, 0.5 h, n = 3, read-out: B:P Ratio Mean ± SD", "result": "7.4 ± 1.2"},
      {"measurement": "Kp at 4 h", "setting": "[3]; male, C57BL/6, mouse, ip, 4 h, individual mice, read-out: B:P Ratio Individual", "result": 7.9},
      {"measurement": "Kp at 4 h", "setting": "[3]; male, C57BL/6, mouse, ip, 4 h, n = 3, read-out: B:P Ratio Mean ± SD", "result": "8.2 ± 1"},
      {"measurement": "Kp", "setting": "[3]; male, C57BL/6, mouse, ip, (fu, brain * AUCbrain, 0-4 h)/(fu, plasma * AUCplasma, 0-4 h), read-out: (Unbound) time-averaged B:P", "result": 2},
      {"measurement": "Kp", "setting": "[3]; male, C57BL/6, mouse, ip, AUCbrain, 0-4 h/AUCplasma, 0-4 h, read-out: (Total) time-averaged B:P", "result": 8.1},
      {"measurement": "concentration at 0.083 h", "setting": "[3]; male, C57BL/6, mouse, plasma, ip, 0.083 h, individual mice, read-out: Plasma Concentration (μM) Individual", "result": 2.3, "unit": "µM"},
      {"measurement": "concentration at 0.083 h", "setting": "[3]; male, C57BL/6, mouse, plasma, ip, 0.083 h, n = 3, read-out: Plasma Concentration (μM) Mean ± SD", "result": "1.72 ± 0.506", "unit": "µM"},
      {"measurement": "concentration at 0.5 h", "setting": "[3]; male, C57BL/6, mouse, plasma, ip, 0.5 h, individual mice, read-out: Plasma Concentration (μM) Individual", "result": 0.718, "unit": "µM"},
      {"measurement": "concentration at 0.5 h", "setting": "[3]; male, C57BL/6, mouse, plasma, ip, 0.5 h, n = 3, read-out: Plasma Concentration (μM) Mean ± SD", "result": "0.823 ± 0.107", "unit": "µM"},
      {"measurement": "concentration at 4 h", "setting": "[3]; male, C57BL/6, mouse, plasma, ip, 4 h, n = 3, read-out: Plasma Concentration (μM) Mean ± SD", "result": "0.107 ± 0.0406", "unit": "µM"},
      {"measurement": "Cmax", "setting": "[3]; [7]", "result": 1720, "unit": "nM"},
      {"measurement": "Tmax", "setting": "[3]; [7]", "result": 5, "unit": "min"},
      {"measurement": "AUC(0-t)", "setting": "[3]; male, C57BL/6, mouse, plasma, IP 10 mg/kg, read-out: Plasma AUC0-4 h", "result": 1.71, "unit": "µM·h"},
      {"measurement": "AUC(0-inf)", "setting": "[3]; male, C57BL/6, mouse, plasma, IP 10 mg/kg, read-out: Plasma AUC0-inf", "result": 1.9, "unit": "µM·h"},
      {"measurement": "half-life", "setting": "[3]; male, C57BL/6, mouse, IP 10 mg/kg, plasma, read-out: Apparent t1/2 (converted)", "result": 72, "unit": "min"}
    ]}
  ]
}
